In series [1] the target is voltage-gated potassium channel hERG (Homo sapiens (Human), UniProt Q12809). The series is described as follows: Predictor hERG fluorescence polarization assay. The format is binding. Here is the method:
In this experiment, IC50 was calculated by detecting the effect of compounds at 8 concentrations on the […]. The procedures were performed exactly as for Predictor™ hERG fluorescence polarization assay kit. Before measuring fluorescence polarization, the assay plate was covered to protect the reagents from light and evaporation, and after incubation at room temperature for 2-4 h, the sample plate was centrifuged to read the fluorescence polarization value, with the excitation light at 540 nm and the emission light at 573 nm.

The next series relates to KM mice. Kind of series: Test for drug-induced disappearance of righting reflex in mice. The format is in vivo. Particulars: single rapid bolus via tail vein. In a few lines: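 Female KM mice (18–25 g), randomly grouped, given a single rapid bolus via tail vein. Latency (administration to loss of righting reflex) and duration (loss to recovery) recorded.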
Series [2] deals with SD rats. Kind of series: Test for drug-induced disappearance of righting reflex in rats. In kind it is in vivo. Particulars: single rapid bolus via tail vein. In a few lines: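 Male SD rats (200-280 g) were randomly grouped and given a single rapid bolus dose via the tail vein. Latency to loss of righting reflex and its duration were recorded.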
For series [3], the system named is SD rats. The series is described as follows: Induction of anesthesia in rats by continuous infusion of drug for 20 min. The format is in vivo. Particulars: initial dose 20 mg/kg bolus, maintenance dose 0.2 (mg/kg)/min for 20 min, after infusion completed. Here is the method: SD rats (male, 200-280 g) were randomly grouped and subjected to administration of an initial dose by rapid bolus via the tail vein, followed by a continuous infusion with a maintenance dose for 20 min.
After the infusion was completed, the duration of the righting reflex and the time from wake-up to recovery in rats were recorded.

Series [4] deals with GABA-activated Cl− current (GABAA receptor) in HEK 293T cells. Kind of series: Effect of drugs on GABA-activated current in cells by cell patch clamp. The format is cell-based. Particulars: for Enhancement percentage Emax for 2 μM GABA current (within 3-30 μM): corresponding concentration 20 μM. In a few lines:
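Whole-cell patch clamp of HEK 293T cells held at −60 mV; compound applied together with 2 μM GABA in extracellular buffer (140 mM NaCl, HEPES, pH 7.4). Enhancement of GABA-evoked Cl− current recorded in the same cell, reported as maximal enhancement (Emax) and corresponding concentration.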
(The patch-clamp technique gives a direct electrical read-out from membranes.)

For another series, the system named is hCMEC/D3 cells. Kind of series: Rate of drug passing through in vitro blood-brain barrier (Transwell). Particulars: hCMEC/D3 monolayer, compound 0.1 mg/mL. The format is in vitro ADME. In a few lines: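 Confluent hCMEC/D3 monolayers grown 10 days on Transwell inserts (5.0 μm pores). Compound at 0.1 mg/mL added to the lower chamber; upper-chamber concentration measured after 5 min, with permeability expressed as upper/lower concentration ×100%.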

Series [5] in a line: In vitro plasma half-life of drug. In kind it is in vitro ADME, SD rats. Particulars: SD rat plasma, 37° C.; for half-life at 0.4 mg/mL: plasma (heparin sodium). Here is the method: Preparation of plasma: after the SD rats were fasted and kept with water for 12 h, blood was collected through orbital venous plexus. The freshly collected blood was added into a centrifuge tube containing heparin sodium and centrifuged at 5000 rpm for 10 min at 4° C. The supernatant was slowly pipetted and subpackaged. Finally, the collected SD rat plasma was sealed, marked, and stored at −20° C. for later use.
Preparation of target compound sample: the target compound was precisely weighed by an analytical balance and prepared into a stock solution at a concentration of 2 mg/mL (solvent: Vacetone:VTween 80:Vnormal saline=1:1:3) for later use.
Determination of in vitro half-life of target compound sample: 20 μL of test compound stock solution and 80 μL of rat plasma were mixed uniformly. Nine parallel ep tubes were taken, marked as corresponding test tubes of 0 min, 1 min, 2 min, 3 min, 5 min, 10 min, 15 min, 20 min, and 30 min, respectively, and placed in a water bath at 37° C. for incubation for 0 min, 1 min, 2 min, 3 min, 5 min, 10 min, 15 min, 20 min, and 30 min, respectively. 50 μL of mixed solution were taken from the corresponding ep tube at each time point, and […] of acetonitrile was added for precipitating protein. The mixture was vortexed for 10 min using a mixer and centrifuged at 12000 rpm for 15 min. Then, the supernatant was centrifuged at 12000 rpm for 10 min. The optimal detection method for the target compound in the MRM mode was determined using Intellistat software in UPLC-MS/MS, the peak area of the corresponding mass spectrum was integrated, and the plasma half-life of the compound was calculated.

The mark [6] stands for this setting: 2 μM GABA, −60 mV, read-out: Positive enhancement EC50 (μM) for 2 μM GABA-induced current.
Where [7] appears, read: read-out: Positive enhancement EC50 (μM) for 2 μM GABA-induced current, −60 mV.

As a reminder, the pIC50 is −log10 of the IC50, conventionally taken in molar units. As a reminder, the EC50 is the concentration needed to bring the measured effect to its halfway point. Usually half-life stands for how long it takes for the measured level to halve.

pIC50: −log10 of the molar value. Read-outs that look alike come from different tables or passages of the source.

voltage-gated potassium channel hERG, sequence (Q12809 whole entry, looked up): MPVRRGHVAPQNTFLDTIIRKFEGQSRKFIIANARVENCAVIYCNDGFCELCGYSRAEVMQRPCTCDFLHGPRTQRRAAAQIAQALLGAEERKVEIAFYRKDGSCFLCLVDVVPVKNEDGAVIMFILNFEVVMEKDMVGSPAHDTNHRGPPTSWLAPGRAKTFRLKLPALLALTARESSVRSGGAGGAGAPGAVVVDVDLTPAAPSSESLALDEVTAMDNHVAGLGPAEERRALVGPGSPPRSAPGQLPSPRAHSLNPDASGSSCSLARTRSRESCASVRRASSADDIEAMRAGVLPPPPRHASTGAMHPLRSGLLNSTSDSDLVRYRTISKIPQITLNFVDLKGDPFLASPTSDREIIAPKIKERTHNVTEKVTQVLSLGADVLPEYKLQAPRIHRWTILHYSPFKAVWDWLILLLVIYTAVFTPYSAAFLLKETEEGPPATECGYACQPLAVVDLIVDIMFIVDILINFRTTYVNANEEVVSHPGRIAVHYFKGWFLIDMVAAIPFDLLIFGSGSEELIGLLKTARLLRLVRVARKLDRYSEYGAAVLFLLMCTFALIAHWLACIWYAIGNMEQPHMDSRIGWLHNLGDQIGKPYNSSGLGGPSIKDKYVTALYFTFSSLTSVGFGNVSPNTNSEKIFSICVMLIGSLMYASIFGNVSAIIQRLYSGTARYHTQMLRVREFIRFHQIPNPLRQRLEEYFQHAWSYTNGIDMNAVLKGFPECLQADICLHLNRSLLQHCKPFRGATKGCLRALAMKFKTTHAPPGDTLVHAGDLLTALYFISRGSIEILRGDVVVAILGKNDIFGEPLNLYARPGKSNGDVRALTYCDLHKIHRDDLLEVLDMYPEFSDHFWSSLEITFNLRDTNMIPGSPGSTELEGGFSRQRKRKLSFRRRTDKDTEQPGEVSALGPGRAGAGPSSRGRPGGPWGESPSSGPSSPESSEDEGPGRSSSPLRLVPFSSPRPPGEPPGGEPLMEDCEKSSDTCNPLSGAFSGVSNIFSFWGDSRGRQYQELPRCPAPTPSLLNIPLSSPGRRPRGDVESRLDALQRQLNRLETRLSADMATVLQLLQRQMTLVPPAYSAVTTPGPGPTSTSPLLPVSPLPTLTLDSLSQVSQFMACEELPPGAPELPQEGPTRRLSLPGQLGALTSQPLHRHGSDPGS

In the case of `Cc1ncc2n1-c1ccc(Cl)cc1C(c1ccccc1F)=NC2` [Midazolam, reference compound], the pIC50 in series [1] is 5.15.

In the series on KM mice (30 mg/kg), `COC(=O)CC[C@H]1N=C(c2ccccc2Cl)c2cc(Cl)ccc2-n2c(SCCN3CCC(O)CC3)nnc21` [Compound 135, methyl (S)-3-(8-chloro-6-(2-chlorophenyl)-1-(2-((4-hydroxypiperidin-1-yl)ethyl)thio)-4H-benzo[f][1,2,4]triazolo[4,3-a][1,4]diazepin-4-yl)propionate] had a Duration of 10.64 min and a Latency of 0.22 min. In the series with SD rats [2], this compound came in with a Duration of 16.64 min and a Latency of 0.14 min. Further, in the series with SD rats [3], the Duration of anesthesia is 7.24 min and the “Time from wake-up to recovery” value is listed as 13.6 min. The EC50 in series [4] (setting [6]) was 0.75 µM. Further, the “Enhancement percentage Emax for 2 μM GABA current (within 3-30 μM)” value (“Enhancement percentage Emax” for short) in series [4] (−60 mV) is on record as 263% (20 μM). Further, the “In vitro blood-brain barrier, compound permeability at 5 min” value (from here on “In vitro blood-brain barrier”) with hCMEC/D3 cells stood at 80.2%. Besides, the “In vitro plasma half-life” value in series [5] came to 19.8 s. Moreover, the pIC50 in series [1] (hERG channel, fluorescence polarization, 8 concentrations, read-out: IC50) was 4.50.

In the series with KM mice (30 mg/kg), `COC(=O)CC[C@@H]1N=C(c2ccccn2)c2cc(Br)ccc2-n2c(SCc3ccncc3)nnc21` [Compound 126, methyl (S)-3-(8-bromo-6-(pyridin-2-yl)-1-(((pyridin-4-yl)methyl)thio)-4H-benzo[f][1,2,4]triazolo[4,3-a][1,4]diazepin-4-yl)propionate] gave a Duration of 5.05 min and a Latency of 0.16 min. In the series on SD rats [2], this compound registered a Latency of 0.26 min. In the series with SD rats [3], the Duration of anesthesia turned out to be 9.52 min and the “Time from wake-up to recovery” value came to 20.5 min. Also, the EC50 in series [4] (setting [7]) stood at 0.45 µM. The “Enhancement percentage Emax” value in series [4] (−60 mV) is recorded as 306% (20 μM). Also, in the series with hCMEC/D3 cells, the “In vitro blood-brain barrier” value was found to be 85.6%. The same compound returned a half-life at 0.4 mg/mL in series [5] of 24.6 s. Besides, in series [1], the pIC50 was 4.14.

In the series on KM mice (30 mg/kg), `COC(=O)CC[C@@H]1N=C(c2ccccc2F)c2cc(Br)ccc2-n2c(S)nnc21` [Compound 4, methyl (S)-3-(8-bromo-6-(2-fluorophenyl)-1-mercapto-4H-benzo[f][1,2,4]triazolo[4,3-a][1,4]diazepin-4-yl)propionate] returned a Duration of 9.21 min and a Latency of 0.88 min. The Latency with SD rats [2] was found to be 0.35 min. In the series on SD rats [3], the Duration of anesthesia was 5.21 min and the “Time from wake-up to recovery” value is reported as 15.6 min. In addition, in series [4] (setting [7]), the EC50 is 0.69 µM. The “Enhancement percentage Emax” value in series [4] (−60 mV) is listed as 252% (20 μM). The “In vitro blood-brain barrier” value in the series on hCMEC/D3 cells is 68.6%. For the same compound, the half-life at 0.4 mg/mL in series [5] came to 104 s.

Take `COC(=O)CC[C@@H]1N=C(c2ccccc2Cl)c2cc(Br)ccc2-n2c(SCCO)nnc21` [Compound 33, methyl (S)-3-(8-bromo-6-(2-chlorophenyl)-1-((2-hydroxyethyl)thio)-4H-benzo[f][1,2,4]triazolo[4,3-a][1,4]diazepin-4-yl)propionate]: the Duration in the series on KM mice (60 mg/kg) came to 6.41 min; with KM mice (100 mg/kg), 12.38 min. The Latency was 0.21 min in the series on KM mice (60 mg/kg), 0.22 min in the series on KM mice (100 mg/kg) and 0.52 min in the series with SD rats [2]. Also, in the series with SD rats [3], the Duration of anesthesia is on record as 17.3 min. Besides, the “Time from wake-up to recovery” value in the series with SD rats [3] is listed as 20.2 min. For the same compound, the EC50 in series [4] (setting [7]) was 0.44 µM. The “Enhancement percentage Emax” value in series [4] (−60 mV) was 279% (20 μM). In addition, in the series on hCMEC/D3 cells, the “In vitro blood-brain barrier” value was determined as 83.4%. The half-life at 0.4 mg/mL in series [5] was 53.4 s.

Take `COC(=O)CC[C@@H]1N=C(c2ccccc2Cl)c2cc(Br)ccc2-n2c(SCCN3CCOCC3)nnc21` [Compound 82, methyl (S)-3-(8-bromo-6-(2-chlorophenyl)-1-((2-morpholinoethyl)thio)-4H-benzo[f][1,2,4]triazolo[4,3-a][1,4]diazepin-4-yl)propionate]: in the series on KM mice (30 mg/kg), the Duration is 8.37 min and the Latency is given as 0.31 min. In addition, the Latency in the series with SD rats [2] turned out to be 0.41 min. For the same compound, in the series on SD rats [3], the Duration of anesthesia is 10.27 min and the “Time from wake-up to recovery” value worked out at 20.8 min. Moreover, in series [4] (setting [7]), the EC50 is 0.39 µM. Also, the “Enhancement percentage Emax” value in series [4] (−60 mV) was 311% (20 μM). For the same compound, in the series with hCMEC/D3 cells, the “In vitro blood-brain barrier” value came out at 80.1%. Further, the half-life at 0.4 mg/mL in series [5] was determined as 22.2 s.

Turning to `COC(=O)CC[C@@H]1N=C(c2ccccc2Cl)c2cc(Br)ccc2-n2c(SCCN)nnc21` [Compound 36, methyl (S)-3-(8-bromo-6-(2-chlorophenyl)-1-((2-aminoethyl)thio)-4H-benzo[f][1,2,4]triazolo[4,3-a][1,4]diazepin-4-yl)propionate], in the series on KM mice (60 mg/kg), the Duration is on record as 8.82 min and the Latency stood at 0.34 min. In the series with SD rats [2], this compound registered a Latency of 0.28 min. Further, in the series on SD rats [3], the Duration of anesthesia came out at 9.37 min and the “Time from wake-up to recovery” value was determined as 17.5 min. The EC50 in series [4] (setting [7]) was 0.58 µM. Further, the “Enhancement percentage Emax” value in series [4] (−60 mV) is given as 227% (20 μM). For the same compound, the “In vitro blood-brain barrier” value in the series on hCMEC/D3 cells stood at 71.6%. The compound also showed a half-life at 0.4 mg/mL in series [5] of 34.2 s.

In the series with KM mice (30 mg/kg), `COC(=O)CC[C@@H]1N=C(c2ccccc2)c2cc(Cl)ccc2-n2c(SC)nnc21` [Compound 102, methyl (S)-3-(8-chloro-1-(methylthio)-6-phenyl-4H-benzo[f][1,2,4]triazolo[4,3-a][1,4]diazepin-4-yl)propionate] came in with a Duration of 17.24 min and a Latency of 1.13 min. In the series with KM mice (60 mg/kg), this compound had a Duration of 7.47 min and a Latency of 0.39 min. In the series with SD rats [2], this compound had a Latency of 0.37 min. In the series on SD rats [3], the Duration of anesthesia came to 4.27 min and the “Time from wake-up to recovery” value worked out at 25.5 min. Also, in series [4] (setting [7]), the EC50 is 0.48 µM. Moreover, the “Enhancement percentage Emax” value in series [4] (−60 mV) is listed as 291% (20 μM). Moreover, the “In vitro blood-brain barrier” value with hCMEC/D3 cells stood at 87.1%. In addition, in series [5], the half-life at 0.4 mg/mL came out at 16.2 s.

On to `COC(=O)CC[C@@H]1N=C(c2ccccc2F)c2cc(Cl)ccc2-n2c1n[nH]c2=S` [Tautomer of compound 1, methyl (S)-3-(8-chloro-6-(2-fluorophenyl)-1-thio-2,4-dihydro-1H-benzo[f][1,2,4]triazolo[4,3-a][1,4]diazepin-4-yl)propionate], for which, in the series with KM mice (30 mg/kg), the Duration turned out to be 3.47 min and the Latency is reported as 0.21 min. For the same compound, in the series with SD rats [2], the Duration worked out at 11.03 min and the Latency amounted to 0.68 min. In addition, in the series on SD rats [3], the Duration of anesthesia was 3.29 min and the “Time from wake-up to recovery” value is recorded as 9.6 min. In addition, the EC50 in series [4] (setting [6]) worked out at 0.72 µM. In addition, the “Enhancement percentage Emax” value in series [4] (−60 mV) was 234% (20 μM). Also, in the series with hCMEC/D3 cells, the “In vitro blood-brain barrier” value is 76.8%. Further, the “In vitro plasma half-life” value in series [5] came to 279 s.

The values above are taken from patent publication US20230416258A1, “BENZ[…], AND PREPARATION METHOD THEREFOR AND USE THEREOF” (CHINA PHARMACEUTICAL UNIVERSITY, priority 2020, published 2023).
